Like-named read-outs stand apart in the source and are kept apart here.
Columns and labels:
Format in all cases: cell-based
[1] = tested on: Respiratory syncytial virus recombinant with luciferase (RSV-Luc5) in HEp-2 cells; experiment: HEp-2 RSV-Luc5 384-well assay (EC50 RSVFLUC Hep2-384 v2, Example V); details: human respiratory syncytial virus, HEp-2, 72 h, read-out: RSV Hep-2 FLuc EC50 (v2) (nM) (per Ex. V)
Procedure, shortened: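 HEp-2 cells (4,000/well) infected with RSV-Luc5 at MOI 0.5 in DMEM/10% FBS with compound, 10-point 1:3 dilutions, 3 days at 37 °C. Replication read by One-Glo luminescence, normalized to remdesivir (0%) and DMSO (100%). EC50 from non-linear regression as concentration giving 50% reduction.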

HCV Replicon 1B = HCV Replicon 1B EC50 (Example Q); details: Hepatitis C virus, 72 h, read-out: HCV Replicon 1B EC50 (nM) (per Ex. Q)
Procedure: (§1) Compounds were serially diluted in ten steps of 1:3 dilutions in 384-well plates. All serial dilutions were performed in four replicates per compound within the same 384-well plate. An HCV protease inhibitor ITMN-191 at […] was added as a control of 100% inhibition of HCV replication while puromycin at 10 mM was included as a control of 100% cytotoxicity. To each well of a black polystyrene 384-well plate (Greiner Bio-one, Monroe, NC), 90 μL of cell culture medium (without Geneticin) containing 2000 suspended HCV replicon cells was added with a Biotek μFlow workstation. For compound transfer into cell culture plates, 0.4 μL of compound solution from the compound serial dilution plate was transferred to the cell culture plate on a Biomek FX workstation. The DMSO concentration in the final assay wells was 0.44%. The plates were incubated for 3 days at 37° C. with 5% CO2 and 85% humidity. The HCV replicon assay was a multiplex assay, able to assess both cytotoxicity and antireplicon activity from the same well. The CC50 assay was performed first. The media in the 384-well cell culture plate was aspirated, and the wells were washed four times with 100 μL of PBS each, using a Biotek ELX405 plate washer. A volume of 50 μL of a solution containing 400 nM calcein AM (Anaspec, Fremont, CA) in 1×PBS was added to each well of the plate with a Biotek μFlow workstation. The plate was incubated for 30 min at room temperature before the fluorescence signal (excitation 490 nm, emission 520 nm) was measured with a Perkin-Elmer Envision plate reader. The EC50 assay was performed in the same wells as the CC50 assay. The calcein-PBS solution in the 384-well cell culture plate was aspirated with a Biotek ELX405 plate washer. A volume of 20 μL of Dual-Glo luciferase buffer (Promega, Madison, WI) was added to each well of the plate with a Biotek μFlow Workstation. The plate was incubated for 10 min at room temperature. A volume of 20 μL of a solution containing a 1:100 mixture of Dual-Glo Stop & Glo substrate (Promega, Madison, WI) and Dual-Glo Stop & Glo buffer (Promega, Madison, WI) was added to each well of the plate with a Biotek μFlow Workstation. The plate was then incubated at room temperature for 10 min before the luminescence signal was measured with a Perkin-Elmer Envision Plate Reader.

HCV Replicon 2A = HCV Replicon 2A EC50 (Example Q); details: Hepatitis C virus, 72 h, read-out: HCV Replicon 2A EC50 (nM) (per Ex. Q)
Procedure: as §1

[2] = HCV Replicon 2A CC50, calcein AM (Example Q); details: calcein AM fluorescence, read-out: HCV Replicon 2A CC50 (nM) (per Ex. Q)
Procedure: as §1

[3] = HCV replicon cells, 3 days, Dual-Glo luciferase

| Compound | EC50 [1] | EC50 (HCV Replicon 1B; [3]) | EC50 (HCV Replicon 2A; [3]) | CC50 at 3 days ([2]; HCV replicon cells (2A)) | EC50 (HCV Replicon 1B) | EC50 (HCV Replicon 2A) | CC50 at 3 days ([2]; HCV replicon cells) |
| --- | --- | --- | --- | --- | --- | --- | --- |
| CCCCCCCCCCCCCCCC[C@H](COP(=O)(O)OC[C@@]1(C#N)O[C@@H](c2ccc3c(N)ncnn23)[C@H](O)[C@@H]1O)OCc1cc(F)cc(C#N)c1 [Compound 78, ((2R,3S,4R,5S)-5-(4-aminopyrrolo[2,1-f][1,2,4]triazin-7-yl)-2-cyano-3,4-dihydroxytetrahydrofuran-2-yl)methyl ((R)-2-((3-cyano-5-fluorobenzyl)oxy)octadecyl) hydrogen phosphate] | 439 nM | 27600 nM | 18400 nM | 33800 nM | – | – | – |
| CCCCCCCCCCCCCCCCCCC[C@H](COP(=O)(O)OC[C@@]1(C#N)O[C@@H](c2ccc3c(N)ncnn23)[C@H](O)[C@@H]1O)OCc1cc(Cl)cc(C#N)c1 [Compound 82, ((2R,3S,4R,5S)-5-(4-aminopyrrolo[2,1-f][1,2,4]triazin-7-yl)-2-cyano-3,4-dihydroxytetrahydrofuran-2-yl)methyl ((R)-2-((3-chloro-5-cyanobenzyl)oxy)henicosyl) hydrogen phosphate] | 1250 nM | – | 19200 nM | 37600 nM | 11300 nM | – | – |
| CCCCCCCCCCCCCCCCCCOC[C@H](COP(=O)(O)OC[C@@]1(C#N)O[C@@H](c2ccc3c(N)ncnn23)[C@H](O)[C@@H]1O)Oc1cccc(C#N)n1 [Compound 21, ((2R,3S,4R,5S)-5-(4-aminopyrrolo[2,1-f][1,2,4]triazin-7-yl)-2-cyano-3,4-dihydroxytetrahydrofuran-2-yl)methyl ((R)-2-((6-cyanopyridin-2-yl)oxy)-3-(octadecyloxy)propyl) hydrogen phosphate] | 222 nM | 13300 nM | 19200 nM | > 44400 nM | – | – | – |
| CCCCCCCCCCCCCCCCCCCC[C@H](COP(=O)(O)OC[C@@]1(C#N)O[C@@H](c2ccc3c(N)ncnn23)[C@H](O)[C@@H]1O)Oc1cccc(C#N)c1 [Compound 51, ((2R,3S,4R,5S)-5-(4-aminopyrrolo[2,1-f][1,2,4]triazin-7-yl)-2-cyano-3,4-dihydroxytetrahydrofuran-2-yl)methyl ((R)-2-(3-cyanophenoxy)docosyl) hydrogen phosphate] | 436 nM | 14600 nM | 19200 nM | > 44400 nM | – | – | – |
| CCCCCCCCCCCCCCCCCOC[C@H](COP(=O)(O)OC[C@@]1(C#N)O[C@@H](c2ccc3c(N)ncnn23)[C@H](O)[C@@H]1O)OCc1cc(F)cc(C#N)c1 [Compound 53, ((2R,3S,4R,5S)-5-(4-aminopyrrolo[2,1-f][1,2,4]triazin-7-yl)-2-cyano-3,4-dihydroxytetrahydrofuran-2-yl)methyl ((R)-2-((3-cyano-5-fluorobenzyl)oxy)-3-(heptadecyloxy)propyl) hydrogen phosphate] | 200 nM | 15500 nM | 15500 nM | 36200 nM | – | – | – |
| CCCCCCCCCCCCCCCCCC[C@@H](COP(=O)(O)OC[C@@]1(C#N)O[C@@H](c2ccc3c(N)ncnn23)[C@H](O)[C@@H]1O)OCc1cc(F)cc(C#N)c1 [Compound 37, ((2R,3S,4R)-5-(4-aminopyrrolo[2,1-f][1,2,4]triazin-7-yl)-2-cyano-3,4-dihydroxytetrahydrofuran-2-yl)methyl ((S)-2-((3-cyano-5-fluorobenzyl)oxy)icosyl) hydrogen phosphate] | 1240 nM | 22500 nM | 26000 nM | > 44400 nM | – | – | – |
| CCCCCCCCCCCCCCCC[C@@H](COP(=O)(O)OC[C@@]1(C#N)O[C@@H](c2ccc3c(N)ncnn23)[C@H](O)[C@@H]1O)OCc1cc(F)cc(C#N)c1 [Compound 79, ((2R,3S,4R,5S)-5-(4-aminopyrrolo[2,1-f][1,2,4]triazin-7-yl)-2-cyano-3,4-dihydroxytetrahydrofuran-2-yl)methyl ((S)-2-((3-cyano-5-fluorobenzyl)oxy)octadecyl) hydrogen phosphate] | 1090 nM | 24300 nM | 20000 nM | 30200 nM | – | – | – |
| CCCCCCCCCCCCCCC[C@H](COP(=O)(O)OC[C@@]1(C#N)O[C@@H](c2ccc3c(N)ncnn23)[C@H](O)[C@@H]1O)OCc1cc(F)cc(C#N)c1 [Compound 80, ((2R,3S,4R,5S)-5-(4-aminopyrrolo[2,1-f][1,2,4]triazin-7-yl)-2-cyano-3,4-dihydroxytetrahydrofuran-2-yl)methyl ((R)-2-((3-cyano-5-fluorobenzyl)oxy)heptadecyl) hydrogen phosphate] | 1050 nM | 32400 nM | 21200 nM | 36900 nM | – | – | – |
| CCCCCCCCCCCCCCCCCCOC[C@H](COP(=O)(O)OC[C@@]1(C#N)O[C@@H](c2ccc3c(N)ncnn23)[C@H](O)[C@@H]1O)OCc1cc(F)cc(C#N)c1 [Compound 1, ((2R,3S,4R,5S)-5-(4-aminopyrrolo[2,1-f][1,2,4]triazin-7-yl)-2-cyano-3,4-dihydroxytetrahydrofuran-2-yl)methyl ((R)-2-((3-cyano-5-fluorobenzyl)oxy)-3-(octadecyloxy)propyl) hydrogen phosphate] | 229 nM | 13800 nM | 20600 nM | > 44400 nM | – | – | – |
| CCCCCCCCCCCCCCCCCCC[C@H](COP(=O)(O)OC[C@@]1(C#N)O[C@@H](c2ccc3c(N)ncnn23)[C@H](O)[C@@H]1O)OCc1ccc(-n2cncn2)c(C#N)c1 [Compound 30, ((2R,3S,4R)-5-(4-aminopyrrolo[2,1-f][1,2,4]triazin-7-yl)-2-cyano-3,4-dihydroxytetrahydrofuran-2-yl)methyl ((R)-2-((3-cyano-4-(1H-1,2,4-triazol-1-yl)benzyl)oxy)henicosyl) hydrogen phosphate] | 115 nM | – | – | – | 3990 nM | 15800 nM | 42400 nM |
| CCCCCCCCCCCCCCCCCCCC[C@@H](COP(=O)(O)OC[C@@]1(C#N)O[C@@H](c2ccc3c(N)ncnn23)[C@H](O)[C@@H]1O)OCc1cc(F)cc(C#N)c1 [Compound 70, ((2R,3S,4R)-5-(4-aminopyrrolo[2,1-f][1,2,4]triazin-7-yl)-2-cyano-3,4-dihydroxytetrahydrofuran-2-yl)methyl ((S)-2-((3-cyano-5-fluorobenzyl)oxy)docosyl) hydrogen phosphate] | 1770 nM | – | – | – | 19600 nM | 25200 nM | 42700 nM |
| CCCCCCCCCCCCCCCCCCOC[C@H](COP(=O)(O)OC[C@@]1(C#N)O[C@@H](c2ccc3c(N)ncnn23)[C@H](O)[C@@H]1O)OCc1ccc(C#N)cc1OC [Compound 73, ((2R,3S,4R)-5-(4-aminopyrrolo[2,1-f][1,2,4]triazin-7-yl)-2-cyano-3,4-dihydroxytetrahydrofuran-2-yl)methyl ((R)-2-((4-cyano-2-methoxybenzyl)oxy)-3-(octadecyloxy)propyl) hydrogen phosphate] | 104 nM | 15900 nM | 20400 nM | > 44400 nM | – | – | – |
| CCCCCCCCCCCCCCCCCC[C@H](COP(=O)(O)OC[C@@]1(C#N)O[C@@H](c2ccc3c(N)ncnn23)[C@H](O)[C@@H]1O)OCc1cc(Cl)cc(C#N)c1 [Compound 81, ((2R,3S,4R,5S)-5-(4-aminopyrrolo[2,1-f][1,2,4]triazin-7-yl)-2-cyano-3,4-dihydroxytetrahydrofuran-2-yl)methyl ((R)-2-((3-chloro-5-cyanobenzyl)oxy)icosyl) hydrogen phosphate] | 445 nM | 10700 nM | 15900 nM | 37900 nM | – | – | – |

Source: US20250034182A1, “PHOSPHOLIPID COMPOUNDS AND METHODS OF MAKING AND USING THE SAME” (priority 2021, published 2025)
